Assay results reported in patent US6683047B1, “Method of inhibiting transcription utilizing nuclear receptors” (The Burnham Institute, priority 1990, dated 2004).

Assays:
[1] = test system: TPA induced collagenase promoter activity (TRα); assay: -73 Col CAT reporter in CV-1 cells, T3 dependent repression by TRα; type: cell-based
Experimental: In addition, applicants have discovered that the thyroid hormone receptor, in the presence of Thyroid hormone, binds AP-1 through a protein/protein interaction and inhibits the transcription of AP-1 activated genes. Specifically, TRα represses TPA induced collagenase promoter activity in a T3 dependent fashion. The −73 Col CAT reporter gene was cotransfected into CV-1 cells with an expression vector for […]. Cells were grown in the presence of the indicated amounts of T3 and/or TPA.

[2] = test system: collagenase promoter lacking AP-1 site (-63Col-CAT); assay: -63Col-CAT reporter co-transfected with RARβ in HeLa cells; type: cell-based; settings: presence or absence of RA
[3] = test system: collagenase promoter AP-1 site (RARβ); assay: -73Col-CAT reporter co-transfected with RARβ expression vector in HeLa cells, TPA induced CAT activity; type: cell-based
Experimental: The −73 Col CAT reporter gene was cotransfected into HeLa with an expression vector for RARβ/ε. Cells were grown in the presence of the indicated amounts of RA and/or TPA.

[4] = test system: collagenase AP-1 site; assay: Gel retardation assay, binding to DNA fragment containing the collagenase AP-1 site; settings: in vitro synthesized protein, 32P-labelled fragment
Experimental: In vitro synthesized glucocorticoid receptor (GR) and retinoic acid receptor (RAR) were incubated with ^32P-labelled DNA fragment derived from −73 COL-CAT by Hind III and Bam HI digestion. Protein-DNA complex was analyzed by gel retardation assay. Control represents the binding of unprogrammed reticulocyte lysate.
Gel retardation experiments were carried out with a 60 bp DNA fragment containing the collagenase AP-1 site.

[5] = molecular target: T1, RARβ binding to RARE (Homo sapiens, UniProt P10826); assay: Gel retardation assay, effect on RARβ binding to RARE; settings: bacterially produced cJun pre-incubated with RARβ
T1 construct: made in house; host or cells: in vitro translation (reticulocyte lysate)
T1 sequence (P10826 1-455): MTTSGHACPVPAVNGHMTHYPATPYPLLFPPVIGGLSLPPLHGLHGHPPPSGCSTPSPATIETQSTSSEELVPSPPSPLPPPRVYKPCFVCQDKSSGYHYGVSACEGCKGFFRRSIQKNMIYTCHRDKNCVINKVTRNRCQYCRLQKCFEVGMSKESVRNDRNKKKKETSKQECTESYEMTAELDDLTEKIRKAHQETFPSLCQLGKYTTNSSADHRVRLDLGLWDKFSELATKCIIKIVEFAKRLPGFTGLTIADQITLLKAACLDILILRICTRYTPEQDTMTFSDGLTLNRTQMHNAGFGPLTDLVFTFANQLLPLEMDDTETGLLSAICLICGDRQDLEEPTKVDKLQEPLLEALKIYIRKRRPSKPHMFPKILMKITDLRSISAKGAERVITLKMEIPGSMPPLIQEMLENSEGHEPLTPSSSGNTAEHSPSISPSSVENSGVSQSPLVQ
Experimental: In vitro synthesized RAR protein was incubated with ^32P-labelled DNA fragment containing one copy of RARE. The binding of RAR on RARE was analyzed by gel retardation assay. […] C represents the binding of unprogrammed reticulocyte lysate in FIG. 5. To test the effect of cJun protein on RAR binding, excess amount of bacterial expressed Jun protein was incubated with RAR at 37° C. for 15 minutes before the addition of DNA. When anti-cJun (a cJun) was used, it was incubated with Jun protein at room temperature for 45 minutes before mixing with RAR protein.
This inhibition was specific as it was prevented by pre-incubation of cJun with anti-Jun antibodies.

[6] = molecular target: T2, cJun binding to the AP-1 site (Homo sapiens, UniProt P05412); assay: Gel retardation assay, effect on cJun binding to the AP-1 site; settings: one-fold or five-fold excess, 37° C. for 15 minutes
T2 construct: made in house; host or cells: cell-free (in vitro) translation or bacteria
T2 sequence (P05412 whole entry): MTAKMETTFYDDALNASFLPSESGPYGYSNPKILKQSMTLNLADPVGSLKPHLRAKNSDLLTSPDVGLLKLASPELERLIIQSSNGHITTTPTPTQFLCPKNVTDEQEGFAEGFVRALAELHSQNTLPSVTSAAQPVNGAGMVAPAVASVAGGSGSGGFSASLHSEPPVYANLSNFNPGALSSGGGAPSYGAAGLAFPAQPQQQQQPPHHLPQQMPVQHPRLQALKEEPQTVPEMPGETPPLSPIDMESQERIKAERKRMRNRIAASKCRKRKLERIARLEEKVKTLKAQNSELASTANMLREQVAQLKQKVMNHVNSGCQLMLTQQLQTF
Experimental: In vitro synthesized cJun protein was incubated with one-fold (1) or five-fold (5) excess of in vitro synthesized RARβ or RARγ protein at 37° C. for 15 minutes. The effect of RARβ or RARγ or cJun binding was analyzed by gel retardation assay.
The Inhibition of cJun binding to the AP-1 site was dependent on the amount of RARs used, and was also observed in response to pre-incubation with in vitro synthesized GR (FIG. 4). As shown for the GRs in Example VI, this in vitro inhibition of cJun binding was ligand independent. The inhibition of Jun binding activity is a specific effect of each receptor because pre-incubation of the cell-free translated RARβ with anti-RAR antibodies prevented this inhibition, while pre-incubation with anti-GR or preimmune serum had no effect. Likewise, the inhibitory activity of cell-free translated GR is inhibited by anti-GR antibodies, but not by anti-RAR or preimmune serum. […] We therefore investigated whether the binding of the heterodimers could also be inhibited by the RAR.

## N[C@@H](Cc1cc(I)c(Oc2ccc(O)c(I)c2)c(I)c1)C(=O)O [T3]
[1]
  repression of TPA collagenase promoter activity: dependant on the concentration of T3

## CC1=C(/C=C/C(C)=C/C=C/C(C)=C/C(=O)O)C(C)(C)CCC1 [RA, retinoic acid]
[2]
  effect on -63Col-CAT activity: no effect
[3]
  concentration required for maximal repression of TPA induced activity of -73 Col-CAT: 10^−6 M
[3]; Homo sapiens, read-out: half maximal inhibition of TPA induced activity of -73 Col-CAT by RARβ
  IC50: 1 nM

## cJun: bacterially produced or in vitro translated cJun protein, AP-1 component
[4]
  binding to collagenase AP-1 site or synthetic AP-1 site: specific binding
[5]
  inhibition of RARβ DNA binding activity on RARE: inhibited its DNA binding activity in a concentration dependent manner

## GR: in vitro synthesized glucocorticoid receptor
[4]
  binding to collagenase AP-1 site or synthetic AP-1 site: did not bind
[6]
  inhibition of cJun binding to the AP-1 site: also observed

B1: RARγ: in vitro synthesized (cell-free translated) retinoic acid receptor γ protein (protein, UniProt P13631 1-454, looked up)
Retinoic acid receptor gamma: MATNKERLFAAGALGPGSGYPGAGFPFAFPGALRGSPPFEMLSPSFRGLGQPDLPKEMASLSVETQSTSSEEMVPSSPSPPPPPRVYKPCFVCNDKSSGYHYGVSSCEGCKGFFRRSIQKNMVYTCHRDKNCIINKVTRNRCQYCRLQKCFEVGMSKEAVRNDRNKKKKEVKEEGSPDSYELSPQLEELITKVSKAHQETFPSLCQLGKYTTNSSADHRVQLDLGLWDKFSELATKCIIKIVEFAKRLPGFTGLSIADQITLLKAACLDILMLRICTRYTPEQDTMTFSDGLTLNRTQMHNAGFGPLTDLVFAFAGQLLPLEMDDTETGLLSAICLICGDRMDLEEPEKVDKLQEPLLEALRLYARRRRPSQPYMFPRMLMKITDLRGISTKGAERAITLKMEIPGPMPPLIREMLENPEMFEDDSSQPGPHPNASSEDEVPGGQGKGGLKSPA
[6]
  inhibition of cJun binding to the AP-1 site: significant inhibition

B2: RARβ: in vitro synthesized (cell-free translated) retinoic acid receptor β protein (protein, UniProt P10826 1-455, looked up)
Retinoic acid receptor beta: MTTSGHACPVPAVNGHMTHYPATPYPLLFPPVIGGLSLPPLHGLHGHPPPSGCSTPSPATIETQSTSSEELVPSPPSPLPPPRVYKPCFVCQDKSSGYHYGVSACEGCKGFFRRSIQKNMIYTCHRDKNCVINKVTRNRCQYCRLQKCFEVGMSKESVRNDRNKKKKETSKQECTESYEMTAELDDLTEKIRKAHQETFPSLCQLGKYTTNSSADHRVRLDLGLWDKFSELATKCIIKIVEFAKRLPGFTGLTIADQITLLKAACLDILILRICTRYTPEQDTMTFSDGLTLNRTQMHNAGFGPLTDLVFTFANQLLPLEMDDTETGLLSAICLICGDRQDLEEPTKVDKLQEPLLEALKIYIRKRRPSKPHMFPKILMKITDLRSISAKGAERVITLKMEIPGSMPPLIQEMLENSEGHEPLTPSSSGNTAEHSPSISPSSVENSGVSQSPLVQ
[4]
  binding to collagenase AP-1 site or synthetic AP-1 site: did not bind
[6]
  inhibition of cJun binding to the AP-1 site: significant inhibition
